Measurements from patent US12492197B2, “3,5-disubstituted pyrazole compounds as kinase inhibitors and uses thereof” (IMPACT THERAPEUTICS (SHANGHAI), INC, priority 2019, dated 2025).

Legend:
[1] = target: T1, CHK1 kinase (Homo sapiens, UniProt O14757); assay: CHK1 kinase inhibition, ADP-Glo kinase assay; assay type: biochemical; settings: compound concentration 10 nM; ATP 10 μM; CHK1 1 ng/well; read-out: Inh % (inhibitory effect on CHK1 kinase activity)
T1 construct: purchased Promega V1941
T1 sequence (O14757 1-476): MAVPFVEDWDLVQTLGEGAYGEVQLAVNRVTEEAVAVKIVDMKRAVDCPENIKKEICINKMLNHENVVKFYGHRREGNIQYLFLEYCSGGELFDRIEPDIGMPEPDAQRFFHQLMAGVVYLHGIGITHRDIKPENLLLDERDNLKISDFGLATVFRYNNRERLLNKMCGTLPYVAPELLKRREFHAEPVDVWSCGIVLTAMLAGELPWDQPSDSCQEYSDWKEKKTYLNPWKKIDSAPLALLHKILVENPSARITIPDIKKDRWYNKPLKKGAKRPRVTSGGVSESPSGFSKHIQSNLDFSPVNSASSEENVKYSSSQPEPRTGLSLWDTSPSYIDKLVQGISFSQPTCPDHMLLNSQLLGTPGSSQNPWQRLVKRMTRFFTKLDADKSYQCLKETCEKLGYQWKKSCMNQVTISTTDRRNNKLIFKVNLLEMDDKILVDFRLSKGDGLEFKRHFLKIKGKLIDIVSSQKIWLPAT
Description: 2 μL of kinase CHK1 (#V1941, Promega), 1 μL of compound diluted with buffer, and 2 μL of ATP substrate was successively added to a 384-well plate (final concentration of CHK1 was 1 ng/well, ATP was 10 μM). The positive control wells contained CHK1, ATP and DMSO whereas the negative control wells contained ATP, DMSO without enzyme. The mixtures were centrifuged at 1000 rpm for 1 minute and kept in darkness at room temperature for 1 hour to react. Then, 5 μL of ADP-Glo reagent was added to each well and incubated at room temperature for 40 minutes. At the end of incubation, 10 μL of kinase detection reagent was added to each well, and the relative chemiluminescence values (RLU) were measured on Varioskan® Flash (Thermo). The following calculation was performed: Inhibition rate %=(RLU of positive control−RLU of compound)/(RLU of positive control−RLU of negative control)×100. Data were analyzed using GraphPad Prism6.0 and fitted using the curve equation: Y=Bottom+(Top-Bottom)/(1+10^((Log IC50−X)*HillSlope)), and IC50 values were calculated.

[2] = system: human breast cancer cell HCC1806; assay: Proliferation of HCC1806 cells, MTT assay; assay type: cell-based; settings: HCC1806, 72 h, 3 days treatment, read-out: IC50 (inhibition of proliferation of HCC1806)
Description: Newly revived HCC1806 cells (purchased from Guangzhou Genio) were cultured and passaged for at least three generations before use. Cells were used at 90% confluency for experiments. Cells were digested with trypsinase and centrifuged at 800 rpm for 5 minutes. The cell pellets were resuspended in fresh RPMI1640 medium and cells were counted. Cells were seeded on 96-well cell culture plates at 2000 cells/well and incubated overnight at 37° C., 5% CO2. The stock solutions of the test substances (including the test compounds and the reference compound) were serially diluted to 8 concentrations with DMSO at a ratio of 1:3. Five μL of each of the serially diluted solutions were added to 120 μL of medium (diluted by 25 times) and mixed by shaking. […] The cell culture plates were returned to incubator at 37° C., 5% CO2 for 3 days. At the end of treatment the cell viability was determined by MTT colorimetric assay. Cell culture medium in each well was replaced by 100 μL/well of serum-free fresh medium containing MTT (0.5 mg/mL), and the culture was continued for additional 4 hours.
(§1) Data was analyzed by GraphPad Prism 6.0. The inhibitory effects of compounds on cell proliferation were plotted based on cell viability vs. the logarithm of compound concentration. Cell viability %=(ODcompound−ODbackground)/(ODDMSO−ODbackground)×100.

[3] = system: human colon cancer cell LoVo; assay: Proliferation of LoVo cells, MTT assay; assay type: cell-based; settings: 96 h, 4 days treatment, read-out: IC50 (inhibition of proliferation of LoVo)
Description: Newly revived LoVo cells (purchased from Shanghai Cell Institute) were cultured and passaged for at least three generations before use. Cells were used at 90% confluence for experiment. Cells were digested with trypsinase and centrifuged at 800 rpm for 5 minutes and the supernatant was discarded. The cell pellets were resuspended in fresh RPMI1640 medium and counted. Cells were seeded on 96-well cell culture plates at 5000 cells/well and incubated overnight at 37° C., 5% CO2. The stock solutions of the test substances (including the test compounds and the reference compound) were serially diluted to 8 concentrations with DMSO at a ratio of 1:3. 5 μL of each series diluted solutions was added to 120 μL of medium (diluted by 25 times) and mixed by shaking. […] The cell culture plates were returned to incubator at 37° C. and 5% CO2 for 4 days. At the end of treatment, the cell viability was determined by MTT colorimetric assay. Cell culture medium in each well was replaced by 100 μL/well of serum-free DMEM medium containing MTT (0.5 mg/mL), and the culture was continued for additional 4 hours. Medium was then discarded and 100 μL/well of DMSO was added.
as §1

Compound | inhibition at 0.01 µM [1] [%] | IC50 [2] [nM] | IC50 [3] [nM]
COc1cccc(OC[C@@H]2CNCCO2)c1-c1cc(Nc2cnc(C)cn2)n[nH]1 [Example 6, (S)—N-(5-(2-methoxy-6-(morpholin-2-ylmethoxy)phenyl)-1H-pyrazol-3-yl)-5-methylpyrazin-2-amine] | 85 | 187 | 192
COc1cccc(OC[C@H]2COCCN2)c1-c1cc(Nc2cnc(C#N)cn2)n[nH]1 [Example 7, (R)-5-((5-(2-methoxy-6-(morpholin-3-ylmethoxy)phenyl)-1H-pyrazol-3-yl)amino)pyrazine-2-carbonitrile] | 95 | 37.6 | 30.1
COc1cccc(OC[C@@H]2CNCCN2)c1-c1cc(Nc2cnc(C#N)cn2)n[nH]1 [Example 10, (S)-5-((5-(2-methoxy-6-(piperazin-2-ylmethoxy)phenyl)-1H-pyrazol-3-yl)amino)pyrazine-2-carbonitrile] | 95 | 24.8 | 23
COc1cccc(OC[C@@H]2CNCCN2C)c1-c1cc(Nc2cnc(C#N)cn2)n[nH]1 [Example 11, (S)-5-((5-(2-methoxy-6-((1-methylpiperazin-2-yl)methoxy)phenyl)-1H-pyrazol-3-yl)amino)pyrazine-2-carbonitrile] | 4.9 | > 1000 | > 1000
COc1cc(C(F)(F)F)cc(OC[C@@H]2CNCCO2)c1-c1cc(Nc2cnc(C#N)cn2)n[nH]1 [Example 19, (S)-5-((5-(2-methoxy-6-(morpholin-2-ylmethoxy)-4-(trifluoromethyl)phenyl)-1H-pyrazol-3-yl)amino)pyrazine-2-carbonitrile] | 91 | 31.4 | 31.2
N#Cc1cnc(Nc2cc(-c3c(OC[C@@H]4CNCCO4)cccc3OC(F)(F)F)[nH]n2)cn1 [Example 20, (S)-5-((5-(2-(morpholin-2-ylmethoxy)-6-(trifluoromethoxy)phenyl)-1H-pyrazol-3-yl)amino)pyrazine-2-carbonitrile] | 31 | 995 | > 1000
COc1cccc(OC[C@H]2CCCNC2)c1-c1cc(Nc2ccc(C#N)cn2)n[nH]1 [Example 24, (S)-6-((5-(2-methoxy-6-(piperidin-3-ylmethoxy)phenyl)-1H-pyrazol-3-yl)amino)nicotinonitrile] | 89 | 69.2 | 70.8
COc1cccc(OC[C@H]2CCCNC2)c1-c1cc(Nc2ccc(C#N)nn2)n[nH]1 [Example 25, (S)-6-((5-(2-methoxy-6-(piperidin-3-ylmethoxy)phenyl)-1H-pyrazol-3-yl)amino)pyridazine-3-carbonitrile] | 91 | 113 | 104
COc1cnc(Nc2cc(-c3c(OC)cccc3OC[C@H]3CCCNC3)[nH]n2)cn1 [Example 26, (S)-5-methoxy-N-(5-(2-methoxy-6-(piperidin-3-ylmethoxy)phenyl)-1H-pyrazol-3-yl)pyrazin-2-amine] | 93 | 118 | 103
CCc1cnc(Nc2cc(-c3c(OC)cccc3OC[C@H]3CCCNC3)[nH]n2)cn1 [Example 27, (S)-5-ethyl-N-(5-(2-methoxy-6-(piperidin-3-ylmethoxy)phenyl)-1H-pyrazol-3-yl)pyrazin-2-amine] | 95 | 129 | 83.8
COc1cccc(OC[C@H]2CCCNC2)c1-c1cc(Nc2ncc(C#N)nc2C)n[nH]1 [Example 29, (S)-5-((5-(2-methoxy-6-(piperidin-3-ylmethoxy)phenyl)-1H-pyrazol-3-yl)amino)-6-methylpyrazine-2-carbonitrile] | – | > 1000 | > 1000
COc1cc(F)cc(OCC2CNCCC2(C)C)c1-c1cc(Nc2cnc(C#N)cn2)n[nH]1 (stereo not shown) [Example 50, 5-((5-(2-((4,4-dimethylpiperidin-3-yl)methoxy)-4-fluoro-6-methoxyphenyl)-1H-pyrazol-3-yl)amino)pyrazine-2-carbonitrile] | – | 26.8 | 35.2
COc1cccc(OC[C@H]2CCCNC2)c1-c1[nH]nc(Nc2cnc(C#N)cn2)c1C [Example 51, (S)-5-((5-(2-methoxy-6-(piperidin-3-ylmethoxy)phenyl)-4-methyl-1H-pyrazol-3-yl)amino)pyrazine-2-carbonitrile] | – | > 1000 | > 1000
N#Cc1cnc(Nc2cc(-c3c(F)cc(Cl)cc3OC[C@@H]3CNCCO3)[nH]n2)cn1 [Example 58, (S)-5-((5-(4-chloro-2-fluoro-6-(morpholin-2-ylmethoxy)phenyl)-1H-pyrazol-3-yl)amino)pyrazine-2-carbonitrile] | – | > 1000 | 913
N#Cc1cnc(Nc2cc(-c3c(F)cc(Br)cc3OC[C@@H]3CNCCO3)[nH]n2)cn1 [Example 60, (S)-5-((5-(4-bromo-2-fluoro-6-(morpholin-2-ylmethoxy)phenyl)-1H-pyrazol-3-yl)amino)pyrazine-2-carbonitrile] | – | > 1000 | 554
Cc1cc(F)c(-c2cc(Nc3cnc(C#N)cn3)n[nH]2)c(OCC2CNC2)c1 [Example 61, 5-((5-(2-(azetidin-3-ylmethoxy)-6-fluoro-4-methylphenyl)-1H-pyrazol-3-yl)amino)pyrazine-2-carbonitrile] | – | 111 | 97
Cc1cc(F)c(-c2cc(Nc3cnc(C#N)cn3)n[nH]2)c(OC[C@@H]2CNCCO2)c1 [Example 64, (S)-5-((5-(2-fluoro-4-methyl-6-(morpholin-2-ylmethoxy)phenyl)-1H-pyrazol-3-yl)amino)pyrazine-2-carbonitrile] | – | 676 | 323
COc1cc(C)cc(OCC2CNC2)c1-c1cc(Nc2cnc(C#N)cn2)n[nH]1 [Example 72, 5-((5-(2-(azetidin-3-ylmethoxy)-6-methoxy-4-methylphenyl)-1H-pyrazol-3-yl)amino)pyrazine-2-carbonitrile] | – | 5.7 | 6
CCc1cc(OC)c(-c2cc(Nc3cnc(C#N)cn3)n[nH]2)c(OC[C@H]2CCCNC2)c1 [Example 75, (S)-5-((5-(4-ethyl-2-methoxy-6-(piperidin-3-ylmethoxy)phenyl)-1H-pyrazol-3-yl)amino)pyrazine-2-carbonitrile] | – | 3.1 | 3.2
COc1cc(F)cc(OC[C@@H]2CNCCS2)c1-c1cc(Nc2cnc(C#N)cn2)n[nH]1 [Example 77-A, (S)-5-((5-(4-fluoro-2-methoxy-6-(thiomorpholin-2-ylmethoxy)phenyl)-1H-pyrazol-3-yl)amino)pyrazine-2-carbonitrile] | – | 3.6 | 3.1
COc1cc(F)cc(OC[C@H]2CNCCS2)c1-c1cc(Nc2cnc(C#N)cn2)n[nH]1 [Example 77-B, (R)-5-((5-(4-fluoro-2-methoxy-6-(thiomorpholin-2-ylmethoxy)phenyl)-1H-pyrazol-3-yl)amino)pyrazine-2-carbonitrile] | – | 16.7 | 17.3
